# Assay: xn = mol fraction of the nth substance listed
# Conditions: 298 K, 101 kPa
structure (smiles),measurement,setting,value
CCCC[n+]1ccn(C)c1.O=S(=O)([N-]S(=O)(=O)C(F)(F)F)C(F)(F)F + CC#N,electrical conductivity,x2 = 0.1027,0.514 S/m
same,viscosity,x2 = 0.1028,39.6 mPa·s
same,electrical conductivity,x2 = 0.1514,0.567 S/m
same,electrical conductivity,x2 = 0.2513,0.72 S/m
same,viscosity,x2 = 0.3638,17.8 mPa·s
same,electrical conductivity,x2 = 0.4169,1.08 S/m
same,electrical conductivity,x2 = 0.5016,1.37 S/m
same,viscosity,x2 = 0.5238,9.4 mPa·s
same,electrical conductivity,x2 = 0.8396,3.67 S/m
same,electrical conductivity,x2 = 0.9485,4.03 S/m
same,electrical conductivity,x2 = 0.9667,3.41 S/m
same,electrical conductivity,x2 = 0.9794,2.69 S/m
CCCC[n+]1ccn(C)c1.O=S(=O)([N-]S(=O)(=O)C(F)(F)F)C(F)(F)F + CC(C)(C)O,viscosity,x2 = 0,50.4 mPa·s
CCCC[n+]1ccn(C)c1.O=S(=O)([N-]S(=O)(=O)C(F)(F)F)C(F)(F)F + CCCCO,electrical conductivity,x2 = 0.0121,0.408 S/m
same,viscosity,x2 = 0.1048,41.5 mPa·s
same,electrical conductivity,x2 = 0.1229,0.477 S/m
same,electrical conductivity,x2 = 0.3394,0.578 S/m
same,viscosity,x2 = 0.3437,22.9 mPa·s
same,electrical conductivity,x2 = 0.4228,0.633 S/m
same,electrical conductivity,x2 = 0.4428,0.667 S/m
same,viscosity,x2 = 0.5066,15.2 mPa·s
same,electrical conductivity,x2 = 0.518,0.677 S/m
same,electrical conductivity,x2 = 0.545,0.677 S/m
same,electrical conductivity,x2 = 0.5556,0.676 S/m
same,electrical conductivity,x2 = 0.5882,0.675 S/m
same,electrical conductivity,x2 = 0.608,0.674 S/m
same,electrical conductivity,x2 = 0.6656,0.66 S/m
same,electrical conductivity,x2 = 0.6796,0.67 S/m
same,viscosity,x2 = 0.7193,8.92 mPa·s
same,electrical conductivity,x2 = 0.7316,0.59 S/m
same,viscosity,x2 = 0.7316,8.55 mPa·s
same,electrical conductivity,x2 = 0.7458,0.57 S/m
same,electrical conductivity,x2 = 0.7645,0.56 S/m
same,electrical conductivity,x2 = 0.7951,0.507 S/m
same,electrical conductivity,x2 = 0.8487,0.401 S/m
same,viscosity,x2 = 0.8618,5.83 mPa·s
same,electrical conductivity,x2 = 0.878,0.349 S/m
CC#N + CCCC[n+]1ccn(C)c1.O=S(=O)([N-]S(=O)(=O)C(F)(F)F)C(F)(F)F,viscosity,x1 = 1,0.37 mPa·s
CC(C)(C)O + CCCC[n+]1ccn(C)c1.O=S(=O)([N-]S(=O)(=O)C(F)(F)F)C(F)(F)F,viscosity,x1 = 0.2367,35.8 mPa·s
same,electrical conductivity,x1 = 0.3616,0.485 S/m
same,electrical conductivity,x1 = 0.401,0.488 S/m
same,electrical conductivity,x1 = 0.4577,0.497 S/m
same,electrical conductivity,x1 = 0.4791,0.5 S/m
same,electrical conductivity,x1 = 0.5125,0.503 S/m
same,viscosity,x1 = 0.5277,20.8 mPa·s
same,electrical conductivity,x1 = 0.538,0.507 S/m
same,electrical conductivity,x1 = 0.5851,0.505 S/m
same,electrical conductivity,x1 = 0.7215,0.476 S/m
same,electrical conductivity,x1 = 0.785,0.377 S/m
same,viscosity,x1 = 1,3.41 mPa·s
CCCCO + CCCC[n+]1ccn(C)c1.O=S(=O)([N-]S(=O)(=O)C(F)(F)F)C(F)(F)F,viscosity,x1 = 1,2.6 mPa·s
CO + CCCC[n+]1ccn(C)c1.O=S(=O)([N-]S(=O)(=O)C(F)(F)F)C(F)(F)F,viscosity,x1 = 1,0.544 mPa·s
ClCCl + CCCC[n+]1ccn(C)c1.O=S(=O)([N-]S(=O)(=O)C(F)(F)F)C(F)(F)F,electrical conductivity,x1 = 0.0175,0.453 S/m
same,viscosity,x1 = 0.1758,33.7 mPa·s
same,electrical conductivity,x1 = 0.243,0.454 S/m
same,viscosity,x1 = 0.3232,21.8 mPa·s
same,electrical conductivity,x1 = 0.3949,0.464 S/m
same,electrical conductivity,x1 = 0.4152,0.539 S/m
same,viscosity,x1 = 0.4391,15.41 mPa·s
same,electrical conductivity,x1 = 0.4625,0.586 S/m
same,electrical conductivity,x1 = 0.4718,0.634 S/m
same,electrical conductivity,x1 = 0.5413,0.657 S/m
same,viscosity,x1 = 0.5646,10.01 mPa·s
same,electrical conductivity,x1 = 0.6165,1.08 S/m
same,electrical conductivity,x1 = 0.6861,1.18 S/m
same,viscosity,x1 = 0.7283,4.25 mPa·s
same,electrical conductivity,x1 = 0.7345,1.33 S/m
same,electrical conductivity,x1 = 0.7725,1.47 S/m
same,electrical conductivity,x1 = 0.7751,1.37 S/m
same,electrical conductivity,x1 = 0.776,1.47 S/m
same,electrical conductivity,x1 = 0.8389,1.46 S/m
same,electrical conductivity,x1 = 0.9008,1.21 S/m
same,electrical conductivity,x1 = 0.9319,0.95 S/m
same,electrical conductivity,x1 = 0.9506,0.739 S/m
same,electrical conductivity,x1 = 0.9696,0.46 S/m
same,viscosity,x1 = 1,0.433 mPa·s
same,electrical conductivity,x2 = 0.0163,0.242 S/m
same,electrical conductivity,x2 = 0.0187,0.287 S/m
CCCC[n+]1ccn(C)c1.O=S(=O)([N-]S(=O)(=O)C(F)(F)F)C(F)(F)F + CO,electrical conductivity,x1 = 0.0104,0.94 S/m
same,viscosity,x1 = 0.0197,0.71 mPa·s
same,viscosity,x2 = 0,50.4 mPa·s
same,electrical conductivity,x2 = 0.0302,0.524 S/m
same,viscosity,x2 = 0.0302,46.2 mPa·s
same,electrical conductivity,x2 = 0.0942,0.509 S/m
same,electrical conductivity,x2 = 0.1177,0.549 S/m
same,electrical conductivity,x2 = 0.1279,0.509 S/m
same,viscosity,x2 = 0.1577,35.8 mPa·s
same,viscosity,x2 = 0.16,34.2 mPa·s
same,electrical conductivity,x2 = 0.1706,0.514 S/m
same,viscosity,x2 = 0.2298,28.8 mPa·s
same,electrical conductivity,x2 = 0.3938,0.651 S/m
same,electrical conductivity,x2 = 0.432,0.99 S/m
same,electrical conductivity,x2 = 0.5555,1.18 S/m
same,electrical conductivity,x2 = 0.6132,1.74 S/m
same,viscosity,x2 = 0.6242,8.27 mPa·s
same,electrical conductivity,x2 = 0.662,1.89 S/m
same,electrical conductivity,x2 = 0.6647,1.96 S/m
same,electrical conductivity,x2 = 0.7009,2.12 S/m
same,electrical conductivity,x2 = 0.7546,2.28 S/m
same,electrical conductivity,x2 = 0.7799,2.29 S/m
same,electrical conductivity,x2 = 0.7983,2.45 S/m
same,electrical conductivity,x2 = 0.8188,2.49 S/m
same,viscosity,x2 = 0.8248,2.61 mPa·s
same,electrical conductivity,x2 = 0.8272,2.51 S/m
same,electrical conductivity,x2 = 0.8805,2.58 S/m
same,viscosity,x2 = 0.8953,1.47 mPa·s
same,electrical conductivity,x2 = 0.9305,2.42 S/m
same,electrical conductivity,x2 = 0.9462,2.23 S/m
same,electrical conductivity,x2 = 0.9721,1.73 S/m
CCCC[n+]1ccn(C)c1.O=S(=O)([N-]S(=O)(=O)C(F)(F)F)C(F)(F)F + O,electrical conductivity,x2 = 0.0012,0.416 S/m
same,electrical conductivity,x2 = 0.0014,0.412 S/m
same,electrical conductivity,x2 = 0.0053,0.412 S/m
same,electrical conductivity,x2 = 0.0135,0.431 S/m
same,electrical conductivity,x2 = 0.0273,0.444 S/m
same,viscosity,x2 = 0.0442,46.9 mPa·s
same,electrical conductivity,x2 = 0.0533,0.444 S/m
same,electrical conductivity,x2 = 0.0737,0.466 S/m
same,viscosity,x2 = 0.0832,42.8 mPa·s
same,electrical conductivity,x2 = 0.1171,0.494 S/m
same,viscosity,x2 = 0.1253,37.2 mPa·s
same,viscosity,x2 = 0.1429,35.4 mPa·s
same,electrical conductivity,x2 = 0.1439,0.52 S/m
same,viscosity,x2 = 0.1721,36 mPa·s
same,electrical conductivity,x2 = 0.1733,0.549 S/m
same,electrical conductivity,x2 = 0.2119,0.583 S/m
same,viscosity,x2 = 0.2222,33.1 mPa·s
same,electrical conductivity,x2 = 0.2436,0.61 S/m
same,electrical conductivity,x2 = 0.2523,0.599 S/m
same,viscosity,x2 = 0.2556,31 mPa·s
same,electrical conductivity,x2 = 0.2559,0.614 S/m
